In PubChem BioAssay (NCI):
Values joined by “and” are separate entries in the source; they are usually repeats but may differ in a detail not shown here. Equal values may be shown once.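 Dose response: 5 concentrations. Exposure: 48 h. Format: 96-well plates. Endpoint: linear interpolation; highest concentration if not reached. GI50: concentration for 50% inhibition of growth. At the TGI there is no net growth.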

Experiments:
Test in all cases: growth of human tumour cells (NCI), 48 h
[1] = system: T-47D breast
[2] = system: SF-539 CNS
[3] = system: TK-10 renal
[4] = system: SNB-75 CNS
[5] = system: LOX IMVI melanoma
[6] = system: SK-MEL-2 melanoma
[7] = system: OVCAR-4 ovarian
[8] = system: KM12 colon
[9] = system: SNB-78 CNS
[10] = system: DMS 114 small cell lung

Row | Compound | GI50 [1] [µM] | TGI [1] [µM] | GI50 [2] [µM] | TGI [2] | GI50 [3] [µM] | TGI [3] | GI50 [4] | TGI [4] | GI50 [5] [µM] | TGI [5] | GI50 [6] [µM] | TGI [6] [µM] | GI50 [7] [µM] | TGI [7] | GI50 [8] [µM] | TGI [8] | TGI [9] [µM] | GI50 [10] | TGI [10]
1 | O=C1NC(=O)C(c2cccc(Cl)c2)=C1Nc1ccc(Cl)c(C(=O)O)c1 | > 25 | > 25 | > 25 | > 25 µM | > 25 | > 25 µM | > 25 µM | > 25 µM | > 25 | > 25 µM | > 25 | > 25 | > 25 | > 25 µM | > 25 | > 25 µM | – | – | –
2 | CCCCC#Cc1c(I)n(C2OC(CO[Si](C)(C)C(C)(C)C)C3OC(C)(C)OC32)c(=O)n(C(=O)c2ccccc2)c1=O (stereo not drawn) | 4.14 | 19.7 | 3.54 | 12.8 µM | 1.78 | 3.19 µM | 14.1 µM | 27.5 µM | 5.54 | 38.5 µM | 2.09 | 4.75 | 14 | 27.2 µM | 1.5 | 3.05 µM | – | – | –
3 | Cc1ccc(SSCC(O)C(O)CSSc2ccc(C)cc2)cc1 (stereo not drawn) | – | – | – | 8.17 µM and 14.3 µM | – | 35.2 µM and 27.7 µM | 5.97 µM and 16.2 µM | 22.2 µM and 31.8 µM | – | 2.78 µM and 4.21 µM | – | 20.5 | – | 26.8 µM and 28.5 µM | – | 21.2 µM and 23.8 µM | 52.6 | 2.07 µM and 7.05 µM | 5.14 µM and 20.4 µM
4 | COC(=O)/C(C#N)=C1\CCC(OC)N1C (stereo not drawn) | – | – | – | > 100 µM | – | > 100 µM | – | > 100 µM | – | > 100 µM | – | > 100 | – | > 100 µM | – | > 100 µM | > 100 | – | > 100 µM
5 | OCCCCC#Cc1ccccc1C#Cc1cccnc1 | 34.7 | > 100 | 43 | > 100 µM | 26.9 | 80.6 µM | 40.3 µM | > 100 µM | 29.6 | > 100 µM | 87.9 | > 100 | 26.5 | > 100 µM | 35.2 | > 100 µM | – | – | –
6 | CCC1CCCCN1CC(C(C)=O)C(c1ccccc1)c1c(O)c2ccccc2oc1=O (stereo not drawn) | – | – | – | > 100 µM | – | > 100 µM | – | > 100 µM | – | > 100 µM | – | > 100 | – | > 100 µM | – | > 100 µM | > 100 | – | > 100 µM
7 | CCN1CCN(c2cc(C(=O)Nc3cccc(Nc4ccc5c(OC)cccc5n4)c3)cc(C(F)(F)F)c2)CC1 | 2.05 | 11.7 | 3.28 | 7.31 µM | 3.47 | 8.02 µM | 1.05 µM | 5.36 µM | 0.781 | 1.96 µM | 5.3 | 11 | 1.57 | 9.32 µM | 1.71 | 6.35 µM | – | – | –
